Data from ChEMBL document CHEMBL1132872, “Synthesis of a potent aminocyclitol alpha-mannosidase inhibitor, 1L-(1,2,3,5/4)-5-amino-4-O-methyl-1,2,3,4-cyclopentanetetrol” (Bioorg Med Chem Lett, 2000).

Experiments:
Parameters in all cases: species or system Canavalia ensiformis
[1] = Inhibitory activity against Alpha-mannosidase (Jack bean)
[2] = Inhibitory activity against Alpha-mannosidase (Jack bean); No inhibition
[3] = Compound (at <10 e -3M) was tested for inhibition of Alpha-mannosidase (jack bean); No inhibition

CCS[C@@H]1[C@@H](N)[C@@H](O)[C@@H](O)[C@H]1O
IC50 [1]: 5 µM

CO[C@@H]1[C@@H](N)[C@@H](O)[C@@H](O)[C@H]1O
IC50 [1]: 0.16 µM

CS[C@@H]1[C@@H](N)[C@@H](O)[C@@H](O)[C@H]1O [MANNOSTATIN A]
IC50 [1]: 0.35 µM

N[C@H]1[C@@H](O)[C@@H](O)[C@@H](O)[C@@H]1S
IC50 [1]: 36 µM

CO[C@@H]1[C@@H](N)[C@@H](OC)[C@@H](O)[C@H]1O
IC50 [2]: Not Active

N[C@@H]1C[C@H](O)[C@H](O)[C@@H]1O
IC50 [1]: 11 µM

CO[C@H]1[C@@H](N)[C@@H](O)[C@@H](O)[C@H]1O
IC50 [3]: Not Active
